Assay results from patent publication US20240026461A1, “BCL10 MUTATIONS AS BIOMARKERS FOR TARGETED THERAPY IN B CELL LYMPHOMAS” (priority 2022, published 2024).

Tests used:
HBL1^WT = experiment: Growth inhibition assay (CellTiter Glo), HBL1 cells expressing BCL10 WT; assay type: cell-based; conditions: Homo sapiens, 96 h, read-out: IC50, growth inhibition, MALT1 inhibitors
Description: (§1) DLBCL cell lines were cultured in exponential condition and the cell growth was determined by CellTiter Glo (Promega). 3000-5000 cells were seeded and cultured in each well of 384 well plate for 96 h and treated with compounds every 48 h. Luminescence was read at the endpoint with the Synergy NEO microplate reader (BioTek). The value of compound treated cells was normalized to their vehicle treated controls and then used to calculate IC50 in GraphPad Prism (RRID:SCR_002798).
(§2) Given the distinct functional profiles, CARD11 dependencies, and MALT1 activation effects of the BCL10 CARD and truncation mutants, the inventors designed experiments to evaluate whether, and to what extent, these mutant BCL10 proteins might confer BTK inhibitor resistance. Isogenic ABC-DLBCL cells expressing BCL10WT, BCL10^R58Q and BCL10^E140X proteins were treated with escalating doses of three chemically distinct covalent BTK inhibitors: ibrutinib, acalabrutinib, or zanubrutinib. The cellular proliferation rates of the treated cells were measured using an ATP fluorescence assay after 96 hours of drug exposure.
(§3) Isogenic BCL10^WT, BCL10^R58Q and BCL10^E140X ABC-DLBCLs were exposed to increasing concentrations of each of these compounds for 96 hours.

HBL1^E140X = experiment: Growth inhibition assay (CellTiter Glo), HBL1 cells expressing BCL10 E140X; assay type: cell-based; conditions: Homo sapiens, 96 h, read-out: IC50, growth inhibition, MALT1 inhibitors
Description: as §1, §2, §3

OCI-LY10^WT = experiment: Growth inhibition assay (CellTiter Glo), OCI-Ly10 cells expressing BCL10 WT; assay type: cell-based; conditions: Homo sapiens, 96 h, read-out: IC50, growth inhibition, MALT1 inhibitors
Description: as §1, §2, §3

[1] = test system: BCL10^E140X ABC-DLBCL xenografts; experiment: Xenograft, JNJ-67690246 treatment, BCL10^E140X tumors; assay type: in vivo, mice; conditions: OCI-Ly10 cell line, p.o. 100 mg/kg twice per day
Description: FIG. 7A-7K illustrate that subjects with BCL10 truncating mutant lymphomas are hypersensitive to MALT1 protease inhibitors. FIG. 7A graphically illustrates growth inhibition of human diffuse large B-cell lymphoma (HBL1) cells and OCI-Ly10 lymphoma cells expressing wild type or mutant BCL10 proteins in response to MALT1 inhibitor C3. X axis, concentration of compound (M); Y axis, inhibition of cell growth normalized to vehicle treated cells. **p<0.01; ***p<0.001; ****p<0.0001; ns, not significant. […] FIG. 7D graphically illustrates luciferase activity measured in the MALT1 GloSensor reporter cell lines treated with MALT1 inhibitor C3. […] FIG. 7E graphically illustrates luciferase activity measured in the MALT1 GloSensor reporter cell lines treated with MALT1 inhibitor MLT-748. […] FIG. 7F graphically illustrates luciferase activity measured in the MALT1 GloSensor reporter cell lines treated with MALT1 inhibitor JNJ-67690246. […] AUC was calculated with Prism. *p<0.05. FIG. 7J graphically illustrates tumor weight measured at the endpoint of the studies described in FIG. 7G-7I. *p<0.05.
All mice experiments were approved by Institutional Animal Care & Use Committee (IACUC) at Weill Cornell Medicine and were performed following the IACUC guidelines. […] Tumor volume was monitored 2˜3 times/week with digital caliper and calculated using the following formula. smallest diameter^2×largest diameter×0.5. […]

IC50 (OCI-LY10^WT): 320 ± 70 nM
SMILES: Cc1nc(-n2nccn2)c(Cl)cc1NC(=O)c1cnn(-c2cccc3c(=O)[nH]ccc23)c1C(F)(F)F [JNJ-67690246]
IC50 (HBL1^WT): 1580 ± 500 nM
IC50 (HBL1^E140X): 150 ± 20 nM
growth of lymphoma xenografts [1]: significant reduction in growth
